From US20160053316A1, “Systems and Methods for Determining a C-Peptide Receptor, C-Peptide Receptor, and Methods of Using Same” (Saint Louis University, priority 2012, published 2016) come the findings set out here.

In one assay the test system is KATOIII cells. Kind of assay: C-peptide-induced cFos mRNA expression (RT-PCR) in KATOIII cells. The format is cell-based, human. Here is the method:
In utilizing the methodology to determine a C-peptide receptor, three human cell lines were determined (101) to respond to treatment with C-peptide with an up regulation of cFos message as determined by RT-PCR. These three were KATOIII (Human Stomach Carcinoma), HEK 293 (human embryonic kidney cells) and TF-1 (an erythroleukemia cell line). The results of tests to show responsiveness are provided graphically in FIGS. 2, 3, and 4. When these three cell lines were screened for the expression of known orphan GPCRs (103), 24 of the approximately 125 orphan GPCRs were expressed by all three cell types as indicated by the table of FIG. 5. Using bioinformatics, the pool of FIG. 5 can be narrowed (105) by eliminating any candidates already matched to other ligands or that had significant homology to GPCRs that bind to non-peptide targets (15 in this case). […] One GPCR (GPR107) could be eliminated as it was recently determined that this was the cognate receptor for neurostatin. […]
To evaluate whether anti-GPR146ex-induced enhancement of receptor capping and co-localization corresponded with an increase in C-peptide-induced cFos expression, KATOIII cells were treated with either vehicle (control media), 1 nM C-peptide, anti-GPR146ex (1:500), or anti-GPR146ex and 1 nM C-peptide for one hour at 37 degrees Celsius. […] Changes in cFos mRNA expression were evaluated using real time PCR (RT-PCR).

The subject of the next assay is HEK293 cells. Kind of assay: C-peptide-induced cFos mRNA expression (RT-PCR) in HEK293 cells. The conditions noted are these: treatment with C-peptide (FIG. 3). The format is cell-based, human. The protocol:
(§1) In utilizing the methodology to determine a C-peptide receptor, three human cell lines were determined (101) to respond to treatment with C-peptide with an up regulation of cFos message as determined by RT-PCR. These three were KATOIII (Human Stomach Carcinoma), HEK 293 (human embryonic kidney cells) and TF-1 (an erythroleukemia cell line). The results of tests to show responsiveness are provided graphically in FIGS. 2, 3, and 4. When these three cell lines were screened for the expression of known orphan GPCRs (103), 24 of the approximately 125 orphan GPCRs were expressed by all three cell types as indicated by the table of FIG. 5. Using bioinformatics, the pool of FIG. 5 can be narrowed (105) by eliminating any candidates already matched to other ligands or that had significant homology to GPCRs that bind to non-peptide targets (15 in this case). This is also shown in FIG. 5 with the items that are eliminated darkened. One GPCR (GPR107) could be eliminated as it was recently determined that this was the cognate receptor for neurostatin. This also allowed it to be used as a convenient control as evidenced later herein.

A further assay has as its system TF-1 cells. Kind of assay: C-peptide-induced cFos mRNA expression (RT-PCR) in TF-1 cells. The assay is classed as cell-based, human. The conditions noted are these: treatment with C-peptide (FIG. 4). The protocol:
as §1

A further assay addresses T1, GPR146 (Homo sapiens, UniProt Q96CH1).
T1 construct: endogenous in cells; host or cells: KATOIII (human stomach carcinoma)
Kind of assay: cFos response to C-peptide in siRNA-transfected KATOIII cells. The assay is classed as cell-based. The conditions noted are these: 1 nmole C-peptide. Here is the method: Once the hierarchical candidates were identified and ranked, KATOIII cells were then transfected with siRNA (Integrated DNA technologies) (111) directed against either GPR107 (control), GPR146 (most likely candidate not yet tested) or eGFP (green fluorescent protein-control) using […] (Invitrogen). Five hours later, the media was changed to serum free control media (ATCC) and the serum was starved overnight. Twenty-four (24) hours after transfection with siRNA, cells were treated with 1 nmole C-peptide (Phoenix Pharmaceuticals) for 1 hour, then lysed and RNA were isolated using an RNeasy Kit (Qiagen). RNA was used as a template from the production of cDNA, and changes in cFos expression were determined using RT-PCR (BioRad 2x iQ SyberGreen Master Mix, using a BioRad CFX real time system). […] As this produced the desired negative response (113), GPR146 was the target GPCR (115). The receptiveness of GPR146 to C-peptide has since been verified by additional conventional tests.

T1 sequence (Q96CH1 whole entry): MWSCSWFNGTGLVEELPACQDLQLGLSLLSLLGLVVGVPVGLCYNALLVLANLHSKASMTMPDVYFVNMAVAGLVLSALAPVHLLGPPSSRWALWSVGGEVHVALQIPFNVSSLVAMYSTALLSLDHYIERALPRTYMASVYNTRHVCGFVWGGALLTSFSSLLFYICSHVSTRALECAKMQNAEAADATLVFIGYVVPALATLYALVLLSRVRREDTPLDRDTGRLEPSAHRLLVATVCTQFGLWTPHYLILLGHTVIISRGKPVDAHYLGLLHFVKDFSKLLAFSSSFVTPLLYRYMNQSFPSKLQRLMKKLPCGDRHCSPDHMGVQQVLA

Take C-peptide: the “cFos mRNA expression, material alone” value in the assay on KATOIII cells (one hour at 37 degrees Celsius, 1 nM C-peptide or anti-GPR146ex 1:500 alone (FIG. 7)) is “increased cFos”. Also, the “cFos mRNA expression” value in the assay with KATOIII cells (treatment with C-peptide (FIG. 2)), with HEK293 cells and in the assay on TF-1 cells was “increase in cFos mRNA expression” throughout. For the same substance, the cFos expression entry was “increase in cFos” at GPR146 (KATOIII cells transfected with Vehicle, GPR107 siRNA or eGFP siRNA (controls), 1 hour) and “failed to respond” at GPR146 (KATOIII cells with GPR146 compromised by siRNA, 1 hour (FIG. 6)).
